Measurements as given in patent US9708336B2, “Metallo-beta-lactamase inhibitors” (priority 2014, dated 2017).
pIC50: −log10 of the molar value. Read-outs that look alike come from different tables or passages of the source.

How the values were obtained:
NDM-1 = NDM-1 (Klebsiella pneumoniae, UniProt C7C422); test: biochemical; assay type: biochemical
IMP-1 = IMP-1 (Serratia marcescens, UniProt P52699); test: biochemical; assay type: biochemical; settings: read-out: IMP-1 IC50
VIM-1 = VIM-1 (Pseudomonas aeruginosa (strain ATCC 15692 / DSM 22644 / CIP 104116 / JCM 14847 / LMG 12228 / 1C / PRS 101 / PAO1), UniProt A0A0F7KYQ8); test: Enzyme activity: determination of IC50, fluorescence assay with CCF2-FA substrate (VIM-1); assay type: biochemical
[1] = test system: Escherichia coli expressing NDM-1 (CLB30016); test: Antibiotic potentiation activity: synergistic concentration (MITC95) with imipenem, OD600 growth; assay type: cell-based; settings: for Escherichia coli expressing NDM-1 (CLB 30016) MITC95: concentration giving 95% inhibition of bacterial growth
How it was run: (§1)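 Steps: colonies grown overnight at 35 °C; resuspended in saline to OD600 0.11–0.15 by strain; diluted 1:100 into 1.1× CAMHB; imipenem then compound added (antibiotic 4 μg/ml in assay); incubated 35 °C for 22–24 h; absorbance measured.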

[2] = test system: Klebsiella pneumoniae expressing VIM-1 (IHMA599644); test: as above; assay type: cell-based; settings: for Klebsiella pneumoniae expressing VIM-1 (IHMA 599644) MITC95: concentration giving 95% inhibition of bacterial growth
How it was run: as §1

[3] = test system: Serratia marcescens expressing IMP-1 (CL5741); test: as above; assay type: cell-based; settings: for Serratia marcescens expressing IMP-1 (CL5741) MITC95: concentration giving 95% inhibition of bacterial growth
How it was run: as §1

[4] = NDM-1 enzyme, CCF2-FA substrate, read-out: NDM-1 IC50
[5] = IMP-1 enzyme, CCF2-FA substrate
[6] = VIM-1 IC50, VIM-1 enzyme, CCF2-FA substrate
[7] = (CLB30016, NDM-1), 95% growth inhibition
[8] = Klebsiella pneumoniae IHMA599644 (VIM-1), 95% growth inhibition
[9] = Serratia marcescens CL5741 (IMP-1), 95% growth inhibition
[10] = VIM-1 enzyme, CCF2-FA substrate, read-out: VIM-1 IC50
[11] = NDM-1 enzyme, CCF2-FA fluorescence assay, read-out: NDM-1 IC50
[12] = IMP-1 enzyme, CCF2-FA fluorescence assay
[13] = VIM-1 IC50, VIM-1 enzyme, CCF2-FA fluorescence assay
[14] = Escherichia coli expressing NDM-1 (CLB30016), 95% growth inhibition
[15] = Klebsiella pneumoniae expressing VIM-1 (IHMA599644), 95% growth inhibition
[16] = Serratia marcescens expressing IMP-1 (CL5741), 95% growth inhibition
[17] = VIM-1 enzyme, CCF2-FA fluorescence assay, read-out: VIM-1 IC50
[18] = fluorescence assay with CCF2-FA substrate, read-out: NDM-1 IC50
[19] = fluorescence assay with CCF2-FA substrate
[20] = fluorescence assay with CCF2-FA substrate, read-out: VIM-1 IC50
[21] = CLB30016 (NDM-1), 95% inhibition of bacterial growth
[22] = IHMA599644 (VIM-1), 95% inhibition of bacterial growth
[23] = CL5741 (IMP-1), 95% inhibition of bacterial growth

Sequence of NDM-1 (C7C422 whole entry, looked up, species assumed): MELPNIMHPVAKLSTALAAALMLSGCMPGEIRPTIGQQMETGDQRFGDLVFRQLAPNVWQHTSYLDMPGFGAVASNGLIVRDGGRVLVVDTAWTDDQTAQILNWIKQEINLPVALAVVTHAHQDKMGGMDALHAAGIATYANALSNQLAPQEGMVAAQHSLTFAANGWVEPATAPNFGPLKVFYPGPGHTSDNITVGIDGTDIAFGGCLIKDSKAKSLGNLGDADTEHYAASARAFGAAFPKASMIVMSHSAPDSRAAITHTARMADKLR
Sequence of IMP-1 (P52699 whole entry, looked up): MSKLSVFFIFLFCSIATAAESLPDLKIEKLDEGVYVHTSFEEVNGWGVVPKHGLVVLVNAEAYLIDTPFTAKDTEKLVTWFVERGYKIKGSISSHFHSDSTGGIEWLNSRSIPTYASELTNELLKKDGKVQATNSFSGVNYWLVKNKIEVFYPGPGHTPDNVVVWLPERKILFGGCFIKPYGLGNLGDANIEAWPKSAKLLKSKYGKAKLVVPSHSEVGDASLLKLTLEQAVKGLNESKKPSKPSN

Structure (SMILES)	pIC50 (NDM-1; [4])	pIC50 (IMP-1; [5])	Escherichia coli MITC95 [1, 7] [µM]	Klebsiella pneumoniae MITC95 [2, 8] [µM]	Serratia marcescens MITC95 [3, 9] [µM]	pIC50 (NDM-1; [11])	pIC50 (IMP-1; [12])	Escherichia coli MITC95 [1, 14] [µM]	Klebsiella pneumoniae MITC95 [2, 15] [µM]	Serratia marcescens MITC95 [3, 16] [µM]	further results
NC[C@H]1CC[C@@H](Cc2ccc(-c3ccc(C4CNC4)cc3)c(-c3nnn[nH]3)c2S(N)(=O)=O)CC1 [Example 602, 4-(((1s,4s)-4-(aminomethyl)cyclohexyl)methyl)-4′-(azetidin-3-yl)-2-(1H-tetrazol-5-yl)-[1,1′-biphenyl]-3-sulfonamide]	8.40	7.68	1.563	1.563	3.125	–	–	–	–	–	pIC50 (VIM-1; [6]): 8.61
NS(=O)(=O)c1cccc(-c2cccc3sc(N[C@H]4CC[C@H](N)CC4)nc23)c1-c1nnn[nH]1 [Example 641, 3-[2-[(4-aminocyclohexyl)amino]-1,3-benzothiazol-4-yl]-2-(1H-tetrazol-5-yl)benzenesulfonamide]	8.99	7.58	6.25	25	25	–	–	–	–	–	pIC50 (VIM-1; [10]): 8.35
N=C(N)NC1CCC(CCc2ccc(-c3ccc(C4CCN(C(=N)N)CC4)cc3)c(-c3nn[nH]n3)c2S(N)(=O)=O)CC1 (stereo not drawn) [Example 472, 4-(4′-(2-(4-guanidinocyclohexyl)ethyl)-3′-sulfamoyl-2′-(2H-tetrazol-5-yl)-[1,1′-biphenyl]-4-yl)piperidine-1-carboximidamide]	–	–	–	–	–	9.30	9.18	1.172	75	0.7813	pIC50 (VIM-1; [13]): 7.87
NS(=O)(=O)c1c(C(F)(F)F)ccc(-c2ccc(C3CCN(C[C@@H]4CNCCO4)CC3)cc2)c1-c1nnn[nH]1 [Example 678, 4′-{1-[(2S)-morpholin-2-ylmethyl]piperidin-4-yl}-2-(1H-tetrazol-5-yl)-4-(trifluoromethyl)biphenyl-3-sulfonamide]	7.82	8.30	9.375	150	6.25	–	–	–	–	–	pIC50 (VIM-1; [10]): 7.68
NS(=O)(=O)c1c(CC2(F)CCNCC2)ccc(-c2ccc(C3CCNCC3)cc2)c1-c1nn[nH]n1 [Example 464, 4-((4-fluoropiperidin-4-yl)methyl)-4′-(piperidin-4-yl)-2-(2H-tetrazol-5-yl)-[1,1′-biphenyl]-3-sulfonamide]	–	–	–	–	–	8.42	7.73	0.7813	1.563	1.563	pIC50 (VIM-1; [17]): 8.71
CNCCN(C)c1ccc(-c2cccc(S(N)(=O)=O)c2-c2nnn[nH]2)cn1 [Example 637, 3-[6-[methyl-[2-(methylamino)ethyl]amino]-3-pyridyl]-2-(1H-tetrazol-5-yl)benzenesulfonamide]	7.28	6.03	2.344	50	25	–	–	–	–	–	pIC50 (VIM-1; [6]): 6.34
NS(=O)(=O)c1cccc(-c2csc(-c3ccncc3)n2)c1-c1nnn[nH]1 [Example 409, 3-[2-(4-pyridyl)thiazol-4-yl]-2-(1H-tetrazol-5-yl)benzenesulfonamide]	–	–	–	–	–	7.57	6.35	1.563	>200	12.5	pIC50 (VIM-1; [17]): 6.63
NS(=O)(=O)c1nccc(N2CCC(N3CCNCC3)CC2)c1-c1nnn[nH]1 [Example 227, 4-(4-piperazin-1-ylpiperidin-1-yl)-3-(1H-tetrazol-5-yl)pyridine-2-sulfonamide]	–	–	–	–	–	–	–	–	–	–	pIC50 (NDM-1; [18]): 6.05; pIC50 (IMP-1; [19]): 5.15; pIC50 (VIM-1; [20]): 6.58; Escherichia coli expressing NDM-1 (CLB 30016) MITC95 [1]: 3.125 µM; Klebsiella pneumoniae expressing VIM-1 (IHMA 599644) MITC95 [2]: 6.25 µM; Serratia marcescens expressing IMP-1 (CL5741) MITC95 [3]: 75 µM
N=C(N)NC[C@H]1CC[C@H](c2ccc(C(F)(F)F)c(S(N)(=O)=O)c2-c2nnn[nH]2)CC1 [Example 503, 3-(trans 4-(guanidinomethyl)cyclohexyl)-2-(1H-tetrazol-5-yl)-6-(trifluoromethyl)benzenesulfonamide]	–	8.38	0.1953	0.7813	0.1953	–	–	–	–	–	pIC50 (NDM-1): 8.94; pIC50 (VIM-1; [10]): 9.74
Nc1nc2ccc(-c3ccc(CC4CCNCC4)c(S(N)(=O)=O)c3-c3nn[nH]n3)cc2[nH]1 [Example 610, 3-(2-amino-3H-benzo[d]imidazol-5-yl)-6-(piperidin-4-ylmethyl)-2-(2H-tetrazol-5-yl)benzenesulfonamide]	8.53	6.94	0.3906	1.563	3.125	–	–	–	–	–	pIC50 (VIM-1; [10]): 8.19
NS(=O)(=O)c1c(C(F)(F)F)ccc([C@H]2CC[C@@H](N)CC2)c1-c1nnn[nH]1 [Example 819, 3-((1s,4s)-4-aminocyclohexyl)-2-(1H-tetrazol-5-yl)-6-(trifluoromethyl)benzenesulfonamide]	–	–	–	–	–	–	–	–	–	–	pIC50 (NDM-1; [18]): 7.84; pIC50 (IMP-1; [19]): 7.01; pIC50 (VIM-1; [20]): 7.56; Escherichia coli MITC95 [1, 21]: 0.8464 µM; Klebsiella pneumoniae MITC95 [2, 22]: 3.385 µM; Serratia marcescens MITC95 [3, 23]: 1.823 µM
NS(=O)(=O)c1c(C(F)(F)F)ccc(N2CCCC3(CCNCC3)C2)c1-c1nnn[nH]1 [Example 772, 3-(2,9-diazaspiro[5.5]undec-2-yl)-2-(1H-tetrazol-5-yl)-6-(trifluoromethyl) benzenesulfonamide]	–	–	–	–	–	–	–	–	–	–	pIC50 (NDM-1; [18]): 7.47; pIC50 (IMP-1; [19]): 6.94; pIC50 (VIM-1; [20]): 7.86; Escherichia coli MITC95 [1, 21]: 12.5 µM; Klebsiella pneumoniae MITC95 [2, 22]: 50 µM; Serratia marcescens MITC95 [3, 23]: 50 µM
CN1CCC(NCc2ccc(-c3cccc(S(N)(=O)=O)c3-c3nnn[nH]3)cc2)C1=O (stereo not drawn) [Example 349, 4′-{[(1-methyl-2-oxopyrrolidin-3-yl)amino]methyl}-2-(1H-tetrazol-5-yl)biphenyl-3-sulfonamide]	–	–	–	–	–	8.36	7.21	6.25	>200	2.344	pIC50 (VIM-1; [13]): 6.20
NCC1CN(C2CCN(c3ccc(C(F)(F)F)c(S(N)(=O)=O)c3-c3nnn[nH]3)CC2)C1 [Example 762, 3-{4-[3-(aminomethyl)azetidin-1-yl]piperidin-1-yl}-2-(1H-tetrazol-5-yl)-6-(trifluoromethyl) benzenesulfonamide]	–	–	–	–	–	–	–	–	–	–	pIC50 (NDM-1; [18]): 7.14; pIC50 (IMP-1; [19]): 6.91; pIC50 (VIM-1; [20]): 7.85; Escherichia coli MITC95 [1, 21]: 3.125 µM; Klebsiella pneumoniae MITC95 [2, 22]: 6.25 µM; Serratia marcescens MITC95 [3, 23]: 6.25 µM
NS(=O)(=O)c1cccc(-c2cc(F)cc(F)c2)c1-c1nnn[nH]1 [Example 129, 3′,5′-difluoro-2-(1H-tetrazol-5-yl)-[1,1′-biphenyl]-3-sulfonamide]	–	–	–	–	–	–	–	–	–	–	pIC50 (NDM-1; [18]): 8.43; pIC50 (IMP-1; [19]): 6.75; pIC50 (VIM-1; VIM-1 IC50, fluorescence assay with CCF2-FA substrate): 7.42; Escherichia coli expressing NDM-1 (CLB 30016) MITC95 [1]: 0.7813 µM; Klebsiella pneumoniae expressing VIM-1 (IHMA 599644) MITC95 [2]: 12.5 µM; Serratia marcescens expressing IMP-1 (CL5741) MITC95 [3]: 9.375 µM
Cc1cc(CNCc2ccc(-c3cccc(S(N)(=O)=O)c3-c3nnn[nH]3)cc2)n[nH]1 [Example 354, 4′-({[(5-methyl-1H-pyrazol-3-yl)methyl]amino}methyl)-2-(1H-tetrazol-5-yl)biphenyl-3-sulfonamide]	–	–	–	–	–	8.14	7.79	2.344	200	2.344	pIC50 (VIM-1; [17]): 6.49
NS(=O)(=O)c1c(C(F)(F)F)ccc(-c2cnc3cc[nH]c3c2)c1-c1nnn[nH]1 [Example 474, 3-(1H-pyrrolo[3,2-b]pyridin-6-yl)-2-(1H-tetrazol-5-yl)-6-(trifluoromethyl)benzenesulfonamide]	–	–	–	–	–	9.28	8.41	0.09375	1.531	0.4453	pIC50 (VIM-1; [17]): 9.26
NS(=O)(=O)c1c(C(F)(F)F)ccc(N2CCC(CCO)CC2)c1-c1nnn[nH]1 [Example 661, 3-[4-(2-hydroxyethyl)piperidin-1-yl]-2-(1H-tetrazol-5-yl)-6-(trifluoromethyl)benzenesulfonamide]	9.00	9.02	2.703	2.75	0.0625	–	–	–	–	–	pIC50 (VIM-1; [10]): 9.66
